Reference: ChEMBL document CHEMBL2311379, “Design and synthesis of 2-(3-alkylaminophenyl)-6-(pyrrolidin-1-yl)quinolin-4-ones as potent antitumor agents” (Bioorg Med Chem Lett, 2013)
Calls of active or inactive are those of the source. No cut-off for these calls is given here.

Key:
[1] = test system: Mus musculus; experiment: Toxicity in human Hep3B cells xenografted nude mouse assessed as mouse body weight changes at 20 mg/kg, ip qd administered for 5 days per week for 4 consecutive weeks; assay type: organism-based, Hep 3B2; parameters: dose 20 mg/kg, route intraperitoneal; settings: in vivo, 120 h
[2] = test system: Mus musculus; experiment: Toxicity in human Hep3B cells xenografted nude mouse assessed as mouse body weight changes at 10 mg/kg, ip qd administered for 5 days per week for 4 consecutive weeks; assay type: organism-based, Hep 3B2; parameters: dose 10 mg/kg, route intraperitoneal; settings: in vivo, 120 h
[3] = test system: Hep 3B2; experiment: Antitumor activity against human Hep3B cells xenografted in nude mouse assessed as inhibition of tumor growth at 10 mg/kg, ip qd administered for 5 days per week for 4 consecutive weeks; assay type: functional, organism-based; parameters: dose 10 mg/kg
[4] = Antitumor activity against human Hep3B cells xenografted in nude mouse assessed as inhibition of tumor growth at 20 mg/kg, ip qd administered for 5 days per week for 4 consecutive weeks; assay type: functional, Hep 3B2; settings: 120 h, route intraperitoneal, read-out: TGI
[5] = Cytotoxicity against human H460 cells; assay type: functional, cell-based; settings: NCI-H460
[6] = test system: Detroit 551; experiment: Cytotoxicity against human Detroit 551 cells; assay type: cell-based
[7] = test system: HL-60; experiment: Cytotoxicity against human HL60 cells; assay type: functional, cell-based
[8] = Cytotoxicity against human Hep3B cells; assay type: functional, cell-based, Hep 3B2
[9] = Cytotoxicity against human NCI60 cells; assay type: functional

Structure (SMILES)	Activity [1]	Activity [2]	TGI [3]	inhibition in vivo at 20 mg/kg [4] [%]	IC50 [5] [nM]	IC50 [6] [nM]	IC50 [7] [nM]	IC50 [8] [nM]	GI50 [9] [nM]
CNc1cccc(-c2cc(=O)c3cc(N4CCCC4)ccc3[nH]2)c1	Non-toxic	Non-toxic	Active	70	35	> 10000	6	21	–
CCNc1cccc(-c2cc(=O)c3cc(N4CCCC4)ccc3[nH]2)c1	–	–	–	–	20	> 10000	5	20	–
CN(C)c1cccc(-c2cc(=O)c3cc(N4CCCC4)ccc3[nH]2)c1	–	–	–	–	13	> 1000	5	15	–
COc1cccc(-c2cc(O)c3cc(N4CCCC4)ccc3n2)c1	–	–	–	–	–	–	–	–	1.91
